This note sets out measurements from patent publication EP0166353B1, “Benzofused lactams useful as antihypertensive agents and as cholecystokinin antagonists” (Merck & Co., Inc., priority 1984, dated 1986).

Each structure is given as a SMILES string.

This assay deals with CCK receptor. Briefly: 125I-CCK-33 receptor binding assay. The note with it: tissue not stated (methods given for rat pancreas and guinea pig brain cortex membranes); read-out: IC₅₀, inhibition of specific ¹²⁵I-CCK-33 binding. How it is done: CCK-33 was radiolabeled with ¹²⁵I-Bolton Hunter reagent (2000 Ci/mmole) as described by Sankara et al. (J. Biol. Chem. 254: 9349-9351, 1979). Receptor binding was performed according to Innis and Snyder (Proc. Natl. Acad. Sci. 77: 6917-6921, 1980) with the minor modification of adding the additional protease inhibitors, phenylmethane sulfonyl fluoride and o-phenanthroline. The latter two compounds have no effect on the ¹²⁵I-CCK receptor binding assay.
Male Sprague-Dawley rats (200-350g) were sacrificed by decapitation. The whole pancreas was dissected free of fat tissue and was homogenized in 20 volumes of ice-cold 50 mM, Tris HCl (pH 7.7 at 25°C) with a Brinkmann Polytron PT 10. The homogenates were centrifuged at 48,000 g for 10 min. […] The supernatant was aspirated and discarded, pellets were counted with a Beckman gamma 5000. […]
Male Hartley guinea pigs (300-500g) were sacrificed by decapitation and the brains were removed and placed in ice-cold 50 mM, Tris HCl plus 7.58 g/L Trizma-7.4 (pH 7.4 at 25°C) Cerebral cortex was dissected and used as a receptor source. […] The supernatant was aspirated and discarded, pellets were counted with a Beckman gamma 5000.

As to `CCOC(=O)C(CCc1ccccc1)NC1CCc2ccccc2N(CC(=O)COC(C)=O)C1=O` (stereo not shown) [1-(3-Acetoxy-2-oxopropyl)-3-(1-carboethoxy-3-phenyl-1-propyl)amino homodihydrocarbostyril], the IC50 is 25 µM.
